Laboratory results reported in patent US20260209247A1, “Substituted Tricyclic Compounds” (Lupin Limited, priority 2019, published 2026).

Tests used:
[1] = biological target: T1, nucleotide exchange on hKRASG12C mediated by hSOS1 (Homo sapiens, UniProt Q07889); assay: Guanine nucleotide exchange assay (GNEA, HTRF); format: biochemical; details: HIS-hSOS1 564-1049aa mediated GTP loading onto GST-hKRASG12C 1-169aa, read-out: Guanine nucleotide exchange inhibition IC50
T1 construct: HIS-hSOS1, 564-1049aa mediated GTP loading onto GST-hKRASG12C; His (N); made in house
T1 sequence (Q07889 564-1049): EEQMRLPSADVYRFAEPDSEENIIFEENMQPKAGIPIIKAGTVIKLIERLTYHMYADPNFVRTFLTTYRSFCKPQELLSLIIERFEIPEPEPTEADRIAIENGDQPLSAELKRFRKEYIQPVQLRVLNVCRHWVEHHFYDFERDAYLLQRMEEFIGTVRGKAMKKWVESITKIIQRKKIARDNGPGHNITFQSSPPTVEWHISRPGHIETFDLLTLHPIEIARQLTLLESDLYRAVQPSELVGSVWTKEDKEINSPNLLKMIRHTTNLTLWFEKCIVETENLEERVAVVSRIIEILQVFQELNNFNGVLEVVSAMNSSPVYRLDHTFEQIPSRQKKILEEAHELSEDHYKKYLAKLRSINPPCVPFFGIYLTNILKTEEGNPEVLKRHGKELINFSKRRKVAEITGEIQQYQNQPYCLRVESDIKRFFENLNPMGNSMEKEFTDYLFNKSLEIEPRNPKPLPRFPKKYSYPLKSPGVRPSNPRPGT
Outline: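 Compounds were pre-incubated 10 min at 20 °C with HIS-hSOS1 (564-1049aa) and EDA-GTP-DY-647P1 (working solution 10-50 nM and 200 nM) in pH 7.4 HEPES with NaCl, MgCl2, DTT, BSA and Igepal. GST-hKRASG12C (1-169aa, 25-125 nM working solution) plus anti-GST-Tb was added for 30-60 min at 20 °C. Percent inhibition came from the HTRF 665/620 nm ratio.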

[2] = biological target: T2, protein-protein interaction between hSOS1 and hKRASG12C (Homo sapiens, UniProt Q07889); assay: KRAS-SOS1 interaction assay (HTRF); format: binding; details: GST-hSOS1 564-1049aa, HIS-hKRASG12C, read-out: KRAS-SOS1 Interaction inhibition IC50
T2 construct: GST-hSOS1, 564-1049aa expressed and purified in-house
T2 sequence (Q07889 564-1049): T1 sequence (Q07889 564-1049)
Outline: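 GST-hSOS1 (564-1049aa) at 10-50 nM working solution pre-incubated with compounds 10 min at 20° C in HEPES pH 7.4 buffer with EDTA, DTT, BSA and Igepal. HIS-hKRASG12C (100-300 nM working solution) added for 30-60 min, then anti-GST-d2/anti-HIS-Tb detection; percent inhibition from the 665/620 nm ratio.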

[3] = system: pERK after EGF stimulation in DLD1 cells; assay: ERK phosphorylation assay (alphascreen pERK); format: cell-based; details: Homo sapiens, DLD-1, 2 h compound, 200 ng/ml hEGF for 5 minutes, read-out: ERK phosphorylation inhibition IC50
Outline: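 DLD1 cells pretreated with test compounds for 2 h, then stimulated with 200 ng/ml hEGF for 5 min. Lysates assayed by AlphaScreen SureFire for ERK1/2 p-T202/Y204, read after 2 h at 25–28 °C. % inhibition relative to the stimulated-minus-unstimulated vehicle window.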

Q: `Cc1nc(N[C@H](C)c2cccc(C(F)(F)CO)c2F)c2cc3c(cc2n1)N(C)C(=O)C31CC1` [Compound 66, (R)-4′-((1-(3-(1,1-difluoro-2-hydroxyethyl)-2-fluorophenyl)ethyl)amino)-2′,8′-dimethylspiro [cyclopropane-1,6′-pyrrolo[3,2-g]quinazolin]-7′(8′H)-one] was tested. Which IC50 [1] did it give?
A: 0.001 to 0.03 µM

Q: And the IC50 [2]?
A: 0.001 to 0.01 µM

Q: And the IC50 [3]?
A: 0.001 to 0.2 µM

Q: `Cc1nc(N[C@H](C)c2cc(N)cc(C(F)(F)F)c2)c2cc3c(cc2n1)C(C)(C)C(=O)N3C` [Compound 70, (R)-4-((1-(3-amino-5-(trifluoromethyl)phenyl)ethyl)amino)-2,6,8,8-tetramethyl-6H-pyrrolo[2,3-g]quinazolin-7(8H)-one] was tested. Which IC50 [1] did it give?
A: 0.031 to 0.13 µM

Q: What about the IC50 [2] of the same compound?
A: 0.001 to 0.01 µM

Q: What about the IC50 [3] of the same compound?
A: 0.001 to 0.2 µM

Q: `Cc1nc(N[C@H](C)c2cccc(C(F)(F)C(C)(C)O)c2F)c2cc3c(cc2n1)C(C)(C)CN3C` [Compound 75, (R)-1,1-difluoro-1-(2-fluoro-3-(1-((2,6,8,8-tetramethyl-7,8-dihydro-6H-pyrrolo[2,3-g]quinazolin-4-yl)amino)ethyl)phenyl)-2-methylpropan-2-ol] was tested. Which IC50 [1] did it give?
A: 0.031 to 0.13 µM

Q: And the IC50 [2]?
A: 0.011 to 0.025 µM

Q: And the IC50 [3]?
A: 0.001 to 0.2 µM

Q: How did the IC50 [1] turn out when `Cc1nc(N[C@H](C)c2cccc(C(F)(F)CO)c2F)c2cc3c(cc2n1)N(C)C(=O)C3(C)C` [Compound 80, (R)-4-((1-(3-(1,1-difluoro-2-hydroxyethyl)-2-fluorophenyl)ethyl)amino)-2,6,6,8-tetramethyl-6,8-dihydro-7H-pyrrolo[3,2-g]quinazolin-7-one] was run?
A: 0.001 to 0.03 µM

Q: And the IC50 [2]?
A: 0.001 to 0.01 µM

Q: What about the IC50 [3] of the same compound?
A: 0.001 to 0.2 µM

Q: Which IC50 [1] does the source give for `CCc1nc(N[C@H](C)c2cccc(C(F)(F)C(C)(C)O)c2F)c2cc3c(cc2n1)N(C)C(=O)C3(C)C` [Compound 86, (R)-4-((1-(3-(1,1-difluoro-2-hydroxy-2-methylpropyl)-2-fluorophenyl)ethyl)amino)-2-ethyl-6,6,8-trimethyl-6,8-dihydro-7H-pyrrolo[3,2-g]quinazolin-7-one] here?
A: 0.031 to 0.13 µM

Q: And the IC50 [2]?
A: 0.001 to 0.01 µM

Q: What about the IC50 [3] of the same compound?
A: 0.001 to 0.2 µM

Q: Which IC50 [1] does the source give for `CCN1C(=O)C(C)(C)c2cc3c(N[C@H](C)c4cccc(C(F)(F)CO)c4F)nc(C)nc3cc21` [Compound 88, (R)-4-((1-(3-(1,1-difluoro-2-hydroxyethyl)-2-fluorophenyl)ethyl)amino)-8-ethyl-2,6,6-trimethyl-6,8-dihydro-7H-pyrrolo[3,2-g]quinazolin-7-one] here?
A: 0.001 to 0.03 µM

Q: And the IC50 [2]?
A: 0.001 to 0.01 µM

Q: What about the IC50 [3] of the same compound?
A: 0.001 to 0.2 µM

Q: How did the IC50 [1] turn out when `Cc1nc(N[C@H](C)c2cccc(C(F)(F)C(C)(C)O)c2F)c2cc3c(c(C)c2n1)N(C)C(=O)C3(C)C` [Compound 90, (R)-4-((1-(3-(1,1-difluoro-2-hydroxy-2-methylpropyl)-2-fluorophenyl)ethyl)amino)-2,6,6,8,9-pentamethyl-6,8-dihydro-7H-pyrrolo[3,2-g]quinazolin-7-one] was run?
A: 0.031 to 0.13 µM

Q: What about the IC50 [2] of the same compound?
A: 0.001 to 0.01 µM

Q: What about the IC50 [3] of the same compound?
A: 0.001 to 0.2 µM

Q: With `CCC1(CC)C(=O)N(C)c2cc3nc(C)nc(N[C@H](C)c4cccc(C(F)(F)C(C)(C)O)c4F)c3cc21` [Compound 91, (R)-4-((1-(3-(1,1-difluoro-2-hydroxy-2-methylpropyl)-2-fluorophenyl)ethyl)amino)-6,6-diethyl-2,8-dimethyl-6,8-dihydro-7H-pyrrolo[3,2-g]quinazolin-7-one] as the compound, how does the IC50 [1] read?
A: 0.031 to 0.13 µM

Q: What about the IC50 [2] of the same compound?
A: 0.011 to 0.025 µM

Q: And the IC50 [3]?
A: 0.001 to 0.2 µM

Q: Which IC50 [1] does the source give for `Cc1nc(N[C@H](C)c2cccc(C(F)(F)C(C)(C)O)c2F)c2cc3c(cc2n1)N(C)C(=O)C3(CF)CF` [Compound 92, (R)-4-((1-(3-(1,1-difluoro-2-hydroxy-2-methylpropyl)-2-fluorophenyl)ethyl)amino)-6,6-bis(fluoromethyl)-2,8-dimethyl-6,8-dihydro-7H-pyrrolo[3,2-g]quinazolin-7-one] here?
A: 0.031 to 0.13 µM

Q: What about the IC50 [2] of the same compound?
A: 0.001 to 0.01 µM

Q: And the IC50 [3]?
A: 0.201 to 0.5 µM

Q: With `COC1(C)C(=O)N(C)c2cc3c(N[C@H](C)c4cccc(C(F)(F)C(C)(C)O)c4F)nc(C)nc3cc21` (stereo partly drawn) [Compound 101, (R&S)-4-(((R)-1-(3-(1,1-difluoro-2-hydroxy-2-methylpropyl)-2-fluorophenyl)ethyl)amino)-8-methoxy-2,6,8-trimethyl-6,8-dihydro-7H-pyrrolo[2,3-g]quinazolin-7-one] as the compound, how does the IC50 [1] read?
A: 0.001 to 0.03 µM

Q: What about the IC50 [2] of the same compound?
A: 0.001 to 0.01 µM

Q: What about the IC50 [3] of the same compound?
A: 0.001 to 0.2 µM

Q: What does the source list for `CCn1c(=O)n(C)c2cc3nc(C)nc(N[C@H](C)c4cccc(C(F)(F)C(C)(C)O)c4F)c3cc21` [Compound 104, (R)-8-((1-(3-(1,1-difluoro-2-hydroxy-2-methylpropyl)-2-fluorophenyl)ethyl)amino)-1-ethyl-3,6-dimethyl-1H-imidazo[4,5-g]quinazolin-2(3H)-one]?
A: IC50 [1]: 0.001 to 0.03 µM; IC50 [2]: 0.001 to 0.01 µM; IC50 [3]: 0.001 to 0.2 µM

Q: How did the IC50 [1] turn out when `Cc1nc(N[C@H](C)c2cccc(C(F)(F)C(C)(C)O)c2F)c2cc3c(cc2n1)n(C)c(=O)n3C(C)C` [Compound 105, (R)-8-((1-(3-(1,1-difluoro-2-hydroxy-2-methylpropyl)-2-fluorophenyl)ethyl)amino)-1-isopropyl-3,6-dimethyl-1H-imidazo[4,5-g]quinazolin-2(3H)-one] was run?
A: 0.001 to 0.03 µM

Q: And the IC50 [2]?
A: 0.001 to 0.01 µM

Q: And the IC50 [3]?
A: 0.001 to 0.2 µM

Q: Which IC50 [1] does the source give for `Cc1nc(N[C@H](C)c2cccc(C(F)(F)C(C)(C)O)c2F)c2cc3c(cc2n1)n(C)c(=O)n3CC(F)F` [Compound 106, (R)-8-((1-(3-(1,1-difluoro-2-hydroxy-2-methylpropyl)-2-fluorophenyl)ethyl)amino)-1-(2,2-difluoroethyl)-3,6-dimethyl-1H-imidazo[4,5-g]quinazolin-2(3H)-one] here?
A: 0.001 to 0.03 µM

Q: And the IC50 [2]?
A: 0.001 to 0.01 µM

Q: What about the IC50 [3] of the same compound?
A: 0.001 to 0.2 µM

Q: Which results are given for `Cc1nc(N[C@H](C)c2cccc(C(F)(F)C(C)(C)O)c2F)c2cc3c(cc2n1)n(C)c(=O)n3C` [Compound 109, (R)-8-((1-(3-(1,1-difluoro-2-hydroxy-2-methylpropyl)-2-fluorophenyl)ethyl)amino)-1,3,6-trimethyl-1,3-dihydro-2H-imidazo[4,5-g]quinazolin-2-one]?
A: IC50 [1]: 0.001 to 0.03 µM; IC50 [2]: 0.001 to 0.01 µM; IC50 [3]: 0.001 to 0.2 µM

Q: Which IC50 [1] does the source give for `C[C@@H](Nc1nc(C2CC2)nc2cc3c(cc12)C(C)(C)C(=O)N3C)c1cccc(C(F)(F)C(C)(C)O)c1F` [Compound 110, (R)-2-cyclopropyl-4-((1-(3-(1,1-difluoro-2-hydroxy-2-methylpropyl)-2-fluorophenyl)ethyl)amino)-6,6,8-trimethyl-6,8-dihydro-7H-pyrrolo[3,2-g]quinazolin-7-one] here?
A: 0.031 to 0.13 µM

Q: And the IC50 [2]?
A: 0.011 to 0.025 µM

Q: What about the IC50 [3] of the same compound?
A: 0.201 to 0.5 µM

Q: What does the source list for `Cc1nc(N[C@H](C)c2cccc(C(F)(F)C(C)(C)O)c2F)c2cc3c(cc2n1)C1(CCOCC1)C(=O)N3C` [Compound 122, (R)-4′-((1-(3-(1,1-difluoro-2-hydroxy-2-methylpropyl)-2-fluorophenyl)ethyl)amino)-2′,6′-dimethyl-2,3,5,6-tetrahydrospiro[pyran-4,8′-pyrrolo[2,3-g]quinazolin]-7′(6′H)-one]?
A: IC50 [1]: 0.001 to 0.03 µM; IC50 [2]: 0.001 to 0.01 µM; IC50 [3]: 0.001 to 0.2 µM

Q: For `CO[C@]1(C)C(=O)N(C)c2cc3c(N[C@H](C)c4cc(N)cc(C(F)(F)F)c4)nc(C)nc3cc21` [Compound 131, (S)-4-(((R)-1-(3-amino-5-(trifluoromethyl)phenyl)ethyl)amino)-8-methoxy-2,6,8-trimethyl-6,8-dihydro-7H-pyrrolo[2,3-g]quinazolin-7-one], which IC50 [1] is on record?
A: 0.031 to 0.13 µM

Q: What about the IC50 [2] of the same compound?
A: 0.011 to 0.025 µM

Q: And the IC50 [3]?
A: 0.001 to 0.2 µM

Q: Which IC50 [1] does the source give for `Cc1nc(N[C@H](C)c2cc(N)cc(C(F)(F)F)c2)c2cc3c(cc2n1)C1(CCOCC1)C(=O)N3C` [Compound 138, (R)-4′-((1-(3-amino-5-(trifluoromethyl)phenyl)ethyl)amino)-2′,6′-dimethyl-2,3,5,6-tetrahydrospiro[pyran-4,8′-pyrrolo[2,3-g]quinazolin]-7′(6′H)-one] here?
A: 0.031 to 0.13 µM

Q: What about the IC50 [2] of the same compound?
A: 0.011 to 0.025 µM

Q: What about the IC50 [3] of the same compound?
A: 0.001 to 0.2 µM

Q: Which IC50 [1] does the source give for `CCC1(OC)C(=O)N(C)c2cc3c(N[C@H](C)c4cc(N)cc(C(F)(F)F)c4)nc(C)nc3cc21` (stereo partly drawn) [Compound 139, (R & S)-4-(((R)-1-(3-amino-5-(trifluoromethyl)phenyl)ethyl)amino)-8-ethyl-8-methoxy-2,6-dimethyl-6,8-dihydro-7H-pyrrolo[2,3-g]quinazolin-7-one] here?
A: 0.031 to 0.13 µM

Q: And the IC50 [2]?
A: 0.011 to 0.025 µM

Q: What about the IC50 [3] of the same compound?
A: 0.201 to 0.5 µM
